# Several values for one entry are separate records, joined by “and”; a condition that tells them apart may be missing. Equal entries are not always repeated. Toxic doses and inconclusive results are not listed.
# Test system: L1210 leukemia ip in BDF1 mice, survival T/C
# Test: NCI In Vivo Anticancer Drug Screen. Data for tumor model L1210 Leukemia (intraperitoneal) in B6D2F1 (BDF1) mice
# Conditions: endpoint: mean survival time, higher = longer survival
# Method in brief: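 Transplantable tumor model; survival measured in treated vs vehicle control mice. Value = treated/control.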
# [1] = dose: 100.0 mg/kg/injection, schedule: Q04DX003 (ip), vehicle: Klucel (hydroxypropylcellulose) (HPC)
# [2] = dose: 200.0 mg/kg/injection, schedule: Q04DX003 (ip), vehicle: Klucel (hydroxypropylcellulose) (HPC)
# [3] = dose: 400.0 mg/kg/injection, schedule: Q04DX003 (ip), vehicle: Klucel (hydroxypropylcellulose) (HPC)
# [4] = dose: 100.0 mg/kg/injection, schedule: Q04DX003 (ip), vehicle: saline
# [5] = dose: 200.0 mg/kg/injection, schedule: Q04DX003 (ip), vehicle: saline
# [6] = dose: 400.0 mg/kg/injection, schedule: Q04DX003 (ip), vehicle: saline
# [7] = dose: 50.0 mg/kg/injection, schedule: Q01DX001 (ip), vehicle: carboxymethylcellulose (CMC)
# [8] = dose: 100.0 mg/kg/injection, schedule: Q01DX001 (ip), vehicle: carboxymethylcellulose (CMC)
# [9] = dose: 100.0 mg/kg/injection, schedule: Q01DX009 (ip), vehicle: Klucel (hydroxypropylcellulose) (HPC)
# [10] = dose: 200.0 mg/kg/injection, schedule: Q01DX009 (ip), vehicle: Klucel (hydroxypropylcellulose) (HPC)
# [11] = dose: 400.0 mg/kg/injection, schedule: Q01DX009 (ip), vehicle: Klucel (hydroxypropylcellulose) (HPC)
# [12] = dose: 100.0 mg/kg/injection, schedule: Q04DX002 (ip), vehicle: Klucel (hydroxypropylcellulose) (HPC)
# [13] = dose: 200.0 mg/kg/injection, schedule: Q04DX002 (ip), vehicle: Klucel (hydroxypropylcellulose) (HPC)
# [14] = dose: 400.0 mg/kg/injection, schedule: Q04DX002 (ip), vehicle: Klucel (hydroxypropylcellulose) (HPC)
# [15] = dose: 100.0 mg/kg/injection, schedule: Q01DX001 (ip), vehicle: saline
# [16] = dose: 200.0 mg/kg/injection, schedule: Q01DX001 (ip), vehicle: saline
# [17] = dose: 400.0 mg/kg/injection, schedule: Q01DX001 (ip), vehicle: saline
# [18] = dose: 100.0 mg/kg/injection, schedule: Q01DX009 (ip), vehicle: saline with Tween-80
# [19] = dose: 100.0 mg/kg/injection, schedule: Q04DX003 (ip), vehicle: saline with Tween-80
# [20] = dose: 200.0 mg/kg/injection, schedule: Q01DX009 (ip), vehicle: saline with Tween-80
# [21] = dose: 200.0 mg/kg/injection, schedule: Q04DX003 (ip), vehicle: saline with Tween-80
# [22] = dose: 400.0 mg/kg/injection, schedule: Q01DX009 (ip), vehicle: saline with Tween-80
# [23] = dose: 400.0 mg/kg/injection, schedule: Q04DX003 (ip), vehicle: saline with Tween-80
# [24] = dose: 100.0 mg/kg/injection, schedule: Q01DX001 (ip), vehicle: Klucel (hydroxypropylcellulose) (HPC)
# [25] = dose: 200.0 mg/kg/injection, schedule: Q01DX001 (ip), vehicle: Klucel (hydroxypropylcellulose) (HPC)
smiles,measurement,setting,value
CN=C(NCc1ccccc1)c1ccc(NC(=O)c2ccc(C(=O)Nc3ccc(C(=NC)NCc4ccccc4)cc3)c(Cl)c2)cc1,T/C,"dose: 2.0 mg/kg/injection, schedule: Q01DX Z (ip), vehicle: carboxymethylcellulose (CMC)",92 % of control
same,T/C,"dose: 4.0 mg/kg/injection, schedule: Q01DX Z (ip), vehicle: carboxymethylcellulose (CMC)",105 % of control
same,T/C,"dose: 8.0 mg/kg/injection, schedule: Q01DX Z (ip), vehicle: carboxymethylcellulose (CMC)",105 % of control
CC(=O)CC(C)(C)NC(=S)NN,T/C,[1],91 % of control
same,T/C,[2],101 % of control
same,T/C,[3],91 % of control
O=C(O)C1CCC[N-]C1.O=C(O)C1CCC[N-]C1.O=C(O)C1CCC[N-]C1.O=C(O)C1CCC[N-]C1.[Cl][Rh][Cl] (stereo unspecified),T/C,"dose: 100.0 mg/kg/injection, schedule: Q01DX009 (ip), vehicle: saline",104 % of control
same,T/C,[4],96 % of control
same,T/C,"dose: 200.0 mg/kg/injection, schedule: Q01DX009 (ip), vehicle: saline",104 % of control
same,T/C,[5],102 % of control
same,T/C,"dose: 400.0 mg/kg/injection, schedule: Q01DX009 (ip), vehicle: saline",90 % of control
same,T/C,[6],96 % of control
O=C1CCCC(=S)N1,T/C,[7],113 % of control
same,T/C,[8],106 % of control
O=S(NOCc1ccccc1)c1ccc(Cl)cc1 (stereo unspecified),T/C,[9],93 % of control
same,T/C,[10],102 % of control
same,T/C,[11],93 % of control
Cc1ccc(S/N=C\c2ccccc2O)cc1,T/C,"dose: 50.0 mg/kg/injection, schedule: Q04DX002 (ip), vehicle: Klucel (hydroxypropylcellulose) (HPC)",93 % of control
same,T/C,[12],100 % of control
same,T/C,[13],107 % of control and 91 % of control
same,T/C,[14],91 % of control
O=C(N/N=C\c1c(O)ccc2ccccc12)c1ccncc1,T/C,[1],106 % of control
same,T/C,[2],101 % of control
same,T/C,[3],108 % of control
CC(=O)OCCC/C(=C\c1cccc([N+](=O)[O-])c1)[N+](=O)[O-],T/C,"dose: 100.0 mg/kg/injection, schedule: Q01DX001 (ip), vehicle: other",111 % of control
COc1cc2c(cc1OCc1ccccc1)C(c1cc(OC)c(OC)c(OC)c1)=C1C(=O)OCC1C2 (stereo unspecified),T/C,[15],98 % of control
same,T/C,[16],97 % of control
same,T/C,[17],97 % of control
CCN(CC#CCOc1ccc(Cl)cc1Cl)c1ccccc1,T/C,[12],109 % of control
same,T/C,[13],98 % of control
same,T/C,[14],102 % of control
CCOc1ccc(C2NC(=O)c3ccccc3N2)cc1 (stereo unspecified),T/C,[9],104 % of control
same,T/C,[1],91 % of control
same,T/C,[10],97 % of control
same,T/C,[2],98 % of control
same,T/C,[11],97 % of control
same,T/C,[3],98 % of control
CCCCCCCCCCCCCCCCCC(=O)N/N=C/CCc1ccccc1,T/C,[18],87 % of control
COc1ccc(/C=C(/C)C(=O)c2ccccc2)cc1,T/C,[1],98 % of control
same,T/C,[2],88 % of control
same,T/C,[3],103 % of control
COc1cc(OC)c(OC)cc1/C=N/Nc1ccc(C(=O)O)cc1,T/C,[18],95 % of control
same,T/C,[19],96 % of control
same,T/C,[20],97 % of control
same,T/C,[21],94 % of control
same,T/C,[22],101 % of control
same,T/C,[23],98 % of control
CC(=O)N/N=C/c1ccc2c(c1)CCC2,T/C,[19],97 % of control
same,T/C,[21],103 % of control
COc1ccc2ccccc2n1,T/C,[24],94 % of control
same,T/C,[18],103 % of control
same,T/C,[19],103 % of control
same,T/C,[25],102 % of control
same,T/C,[20],90 % of control
same,T/C,[21],98 % of control
same,T/C,"dose: 400.0 mg/kg/injection, schedule: Q01DX001 (ip), vehicle: Klucel (hydroxypropylcellulose) (HPC)",105 % of control
CNC(C(=O)OCc1ccccc1)C(C)C (stereo unspecified),T/C,[4],112 % of control
same,T/C,[5],99 % of control
same,T/C,[6],100 % of control
O=C(Nc1ccc(Cl)cc1)NC1CC1,T/C,"dose: 62.5 mg/kg/injection, schedule: Q01DX009 (ip), vehicle: saline with Tween-80",91 % of control
same,T/C,"dose: 125.0 mg/kg/injection, schedule: Q01DX009 (ip), vehicle: saline with Tween-80",90 % of control
same,T/C,"dose: 250.0 mg/kg/injection, schedule: Q01DX009 (ip), vehicle: saline with Tween-80",95 % of control
Cc1nc2ccccc2nc1CBr,T/C,"dose: 3.2 mg/kg/injection, schedule: Q01DX009 (ip), vehicle: Klucel (hydroxypropylcellulose) (HPC)",103 % of control
same,T/C,"dose: 6.3 mg/kg/injection, schedule: Q01DX009 (ip), vehicle: Klucel (hydroxypropylcellulose) (HPC)",100 % of control
same,T/C,"dose: 12.5 mg/kg/injection, schedule: Q01DX009 (ip), vehicle: Klucel (hydroxypropylcellulose) (HPC)",105 % of control
same,T/C,"dose: 12.5 mg/kg/injection, schedule: Q04DX003 (ip), vehicle: saline with Tween-80",98 % of control
same,T/C,"dose: 25.0 mg/kg/injection, schedule: Q01DX009 (ip), vehicle: Klucel (hydroxypropylcellulose) (HPC)",97 % of control
same,T/C,"dose: 25.0 mg/kg/injection, schedule: Q04DX003 (ip), vehicle: saline with Tween-80",89 % of control
same,T/C,"dose: 50.0 mg/kg/injection, schedule: Q01DX009 (ip), vehicle: Klucel (hydroxypropylcellulose) (HPC)",102 % of control
same,T/C,"dose: 50.0 mg/kg/injection, schedule: Q04DX003 (ip), vehicle: saline with Tween-80",98 % of control
O=C1C(=O)N(CN2CCCCC2)c2ccccc21,T/C,[18],98 % of control
same,T/C,[19],109 % of control
same,T/C,[20],113 % of control
same,T/C,[21],109 % of control
same,T/C,[22],104 % of control
same,T/C,[23],108 % of control
O=S(=O)(Nc1ccccn1)c1ccc(N=Nc2ccc(O)c3ncccc23)cc1,T/C,[15],103 % of control
same,T/C,[16],105 % of control
same,T/C,[17],103 % of control
Cc1c(C)c2nc3ccccc3nc2c2ccccc12,T/C,"dose: 50.0 mg/kg/injection, schedule: Q01DX001 (ip), vehicle: Klucel (hydroxypropylcellulose) (HPC)",98 % of control
same,T/C,[24],95 % of control
same,T/C,[25],95 % of control
NCCSc1cc(O)c2c(c1N)C(=O)c1ccccc1C2=O,T/C,[7],97 % of control
same,T/C,[8],97 % of control
same,T/C,"dose: 200.0 mg/kg/injection, schedule: Q01DX001 (ip), vehicle: carboxymethylcellulose (CMC)",100 % of control
same,T/C,"dose: 400.0 mg/kg/injection, schedule: Q01DX001 (ip), vehicle: carboxymethylcellulose (CMC)",97 % of control
NC(=S)N/N=C/c1ccc2ccccc2c1,T/C,"dose: 50.0 mg/kg/injection, schedule: Q01DX001 (ip), vehicle: saline",107 % of control
same,T/C,[15],107 % of control
same,T/C,[16],107 % of control
same,T/C,[17],116 % of control
N=C(N)c1ccc(OCCCCOc2ccc(NC(=O)Nc3ccc(S(=O)(=O)F)cc3Cl)cc2)cc1,T/C,"dose: 100.0 mg/kg/injection, schedule: Q01DX001 (ip), vehicle: saline with Tween-80",91 % of control
same,T/C,"dose: 200.0 mg/kg/injection, schedule: Q01DX001 (ip), vehicle: saline with Tween-80",90 % of control
O=C(Nc1ccc(NC(=O)Nc2ccc(C3=NCCCN3)cc2)cc1)Nc1ccc(C2=NCCCN2)cc1,T/C,"dose: 8.3 mg/kg/injection, schedule: Q04DX003 (ip), vehicle: saline with Tween-80",107 % of control
same,T/C,"dose: 12.0 mg/kg/injection, schedule: Q04DX003 (ip), vehicle: saline with Tween-80",121 % of control
same,T/C,[15],124 % of control
same,T/C,[5],159 % of control
same,T/C,"dose: 264.0 mg/kg/injection, schedule: Q01DX001 (ip), vehicle: saline",208 % of control
same,T/C,[6],279 % of control
CCOC(=O)c1ccc(NC(=O)Nc2ccc(SC)cc2)cc1N(CC)CC,T/C,[18],104 % of control
same,T/C,[20],94 % of control
same,T/C,[22],92 % of control
